Data published in patent publication US20170064988A1, “Delivery Systems for Natural High-Potency Sweetener Compositions, Methods for Their Formulation, and Uses” (The Coca-Cola Company, priority 2007, published 2017).

How the values were obtained:
[1] = Dissolution of spray-dried amorphous rebaudioside A in water; assay type: physicochemical; settings: room temperature, in 5 minutes
Method: A solution of rebaudioside A (>97% pure by HPLC) was prepared in double distilled water (12.5 gm in 50 mL, 25% concentration) by stirring the mixture at 40° C. for 5 minutes. An amorphous rebaudioside form of A was formed by immediately using the clear solution for spray drying with the Lab-Plant spray drier SD-04 instrument (Lab-Plant Ltd., West Yorkshire, U.K.). The solution was fed through the feed pump into the nozzle atomizer which atomized it into a spray of droplets with the help of a constant flow of nitrogen/air. […] This dry powder (11-12 g, H2O 6.74%) was discharged continuously from the drying chamber and was collected in a bottle. The material was dissolved rapidly in water at room temperature up to a concentration of 35.0% (w/v) in 5 minutes.

[2] = Rate of dissolution of rebaudioside A polymorphic and amorphous forms in water; assay type: physicochemical

Concentration dissolved rapidly in water [1] | Rate of dissolution in H2O at 25° C. (grade in words) [2] | Rate of dissolution in H2O at 25° C., amount dissolved in 60 minutes ([2]; in 60 minutes) | Rate of dissolution in H2O at 25° C., amount dissolved in 5 minutes [2] | SMILES
≤ 35.0 % (w/v) | – | – | – | C=C1C[C@@]23CC[C@H]4[C@@](C)(CCC[C@@]4(C)C(=O)O[C@@H]4O[C@H](CO)[C@@H](O)[C@H](O)[C@H]4O)[C@@H]2CC[C@]1(O[C@@H]1O[C@H](CO)[C@@H](O)[C@H](O[C@@H]2O[C@H](CO)[C@@H](O)[C@H](O)[C@H]2O)[C@H]1O[C@@H]1O[C@H](CO)[C@@H](O)[C@H](O)[C@H]1O)C3 [Example F, rebaudioside A]
– | Very low | (<0.2% in | – | C=C1C[C@@]23CC[C@H]4[C@@](C)(CCC[C@@]4(C)C(=O)O[C@@H]4O[C@H](CO)[C@@H](O)[C@H](O)[C@H]4O)[C@@H]2CC[C@]1(O[C@@H]1O[C@H](CO)[C@@H](O)[C@H](O[C@@H]2O[C@H](CO)[C@@H](O)[C@H](O)[C@H]2O)[C@H]1O[C@@H]1O[C@H](CO)[C@@H](O)[C@H](O)[C@H]1O)C3 [Form 1, rebaudioside A]
– | Intermediate | – | (<30% in | C=C1C[C@@]23CC[C@H]4[C@@](C)(CCC[C@@]4(C)C(=O)O[C@@H]4O[C@H](CO)[C@@H](O)[C@H](O)[C@H]4O)[C@@H]2CC[C@]1(O[C@@H]1O[C@H](CO)[C@@H](O)[C@H](O[C@@H]2O[C@H](CO)[C@@H](O)[C@H](O)[C@H]2O)[C@H]1O[C@@H]1O[C@H](CO)[C@@H](O)[C@H](O)[C@H]1O)C3 [Form 2, rebaudioside A]
– | High | – | (>30% in | C=C1C[C@@]23CC[C@H]4[C@@](C)(CCC[C@@]4(C)C(=O)O[C@@H]4O[C@H](CO)[C@@H](O)[C@H](O)[C@H]4O)[C@@H]2CC[C@]1(O[C@@H]1O[C@H](CO)[C@@H](O)[C@H](O[C@@H]2O[C@H](CO)[C@@H](O)[C@H](O)[C@H]2O)[C@H]1O[C@@H]1O[C@H](CO)[C@@H](O)[C@H](O)[C@H]1O)C3 [Form 3, rebaudioside A]
– | High | – | (>35% in | C=C1C[C@@]23CC[C@H]4[C@@](C)(CCC[C@@]4(C)C(=O)O[C@@H]4O[C@H](CO)[C@@H](O)[C@H](O)[C@H]4O)[C@@H]2CC[C@]1(O[C@@H]1O[C@H](CO)[C@@H](O)[C@H](O[C@@H]2O[C@H](CO)[C@@H](O)[C@H](O)[C@H]2O)[C@H]1O[C@@H]1O[C@H](CO)[C@@H](O)[C@H](O)[C@H]1O)C3 [Form 4, rebaudioside A]
